The source of these data is PMC3758303 (PLoS ONE, 2013).

In assay [1] the test system is HCV-RNA replication in ORL8 cells. Kind of assay: Effect of VE on anti-HCV activity, ORL8 RL assay. In kind it is cell-based, hepatitis C virus. Conditions: 72 hrs. As to the method:
After treatment, an RL assay of harvested ORL8 cell samples was performed. (B, D, and F) The ratio of RL activity in the presence of VE to the RL activity in the absence of VE. The above ratio was calculated from the data of (A, C, and E). […] (G) Western blot analysis was performed as described in Fig. 1B.
(§1) The ORL8 cells were treated with N-89 or IFN-α, and then RL assays were performed at 2 to 72 hrs after the treatment. The relative value (%) calculated at each time point, when the luciferase activity of non-treated cells at 24 hrs was assigned as 100%, is shown. Data are expressed as the means±standard deviation of triplicate assays. […] To evaluate this possibility, we examined the effect of VE on N-89 at the EC90 level in the ORL8 assay.

Assay [2] relates to HCV-RNA replication. Further details: method as in PMID 21620801, PMID 16875675. Conditions: cited from earlier work.
In assay [3] the test system is genome-length HCV-RNA (O strain of genotype 1b) replication in HuH-7-derived OR6 cells. Further details: method as in PMID 21320556. Conditions: 10 µM, OR6 assay; cited from earlier work.
Assay [4] deals with genome-length HCV-RNA (O strain of genotype 1b) replication in Li23-derived ORL8 cells. Further details: method as in PMID 21320556. Conditions: 10 µM, ORL8 assay; cited from earlier work.
The test system of assay [5] is genome-length HCV-RNA (O strain of genotype 1b) replication in Li23-derived ORL11 cells. On the set-up: method as in PMID 21320556. The conditions noted are these: 10 µM, ORL11 assay; cited from earlier work.
In assay [6] the test system is genome-length HCV-RNA (O strain of genotype 1b) replication in Li23-derived ORL8 cells. Kind of assay: ORL8 RL assay. The assay is classed as cell-based, hepatitis C virus. The conditions noted are these: ORL8 cells. The method, then: RSc and D7 cells were derived from the cell lines HuH-7 and Li23, respectively, were cultured as described previously, [29]. HuH-7-derived OR6 [13], AH1R [30], and 1B-4R [Ikeda et al., submitted] cells harboring genome-length HCV-RNA and HuH-7-derived polyclonal sOR [31], and RSc-JRN/35B [Ikeda et al., submitted] cells harboring an HCV subgenomic replicon were cultured with medium in the presence of G418 (0.3 mg/ml; Geneticin, Invitrogen, Carlsbad, CA) as described previously. Li23-derived ORL8 [20], ORL11 [20], 1B-4RL [Ikeda et al., submitted], and KAH5RL [Ikeda et al., submitted] cells harboring genome-length HCV-RNA were maintained with medium in the presence of G418 (0.3 mg/ml) as described previously. Li23-derived polyclonal sORL8 and sORL11 cells harboring an HCV replicon, which were established by the transfection of ORN/3-5B/QR,KE,SR RNA into the cured OL8 and OL11 cells, respectively, were also cultured with medium in the presence of G418 (0.3 mg/ml) as described previously. […] Therefore, when HCV-RNA is excluded from the cells or when its level is decreased, the cells are killed in the presence of G418.
RL assay was performed as described previously, [24]. Briefly, the cells were plated onto 24-well plates (2×10^4 cells per well) in triplicate and then treated with each reagent at several concentrations for 72 hrs. After treatment, the cells were subjected to luciferase assay using the RL assay system (Promega, Madison, WI). The experiments were performed at least in triplicate. From the assay results, the 50% effective concentration (EC50) of each reagent was determined.
The SI value of each reagent was determined by dividing the CC50 value by the EC50 value.

The test system of assay [7] is HCV-RNA replication in ORL8 cells. Kind of assay: Comparative time course RL assay in ORL8 cells. The assay is classed as cell-based, hepatitis C virus. Conditions: 1 IU/ml. As to the method: We next performed a time course assay (2 to 72 hrs after treatment) in the case of ORL8 cells treated with N-89 (0.1 µM or 1 µM) or IFN-α (1 IU/ml; corresponding to approximately EC80). ORL8 cells treated with IFN-α (1 IU/ml) and N-89 (1 µM) had almost the same anti-HCV kinetics over the first […] after treatment (upper panel of Fig. 4); however, within the first 12 hrs after treatment N-89-treated ORL8 cells had more rapid anti-HCV kinetics than did the IFN-α-treated cells (lower panel of Fig. 4).
as §1, with “Figure 4 The anti-HCV action of N-89 was faster than that of IFN-α. The ORL8” for “The ORL8”, “ORL8 assay. […] Similar results were obtained by using N-251 (Fig. 5C and D). […] However, an antimalarial drug, artemisinin, was hardly influenced by co-treatment with VE (Fig. 5E). The value (1.9) of artemisinin was almost the same as that (3.5 or 2.5) of IFN-α or the control, respectively (Fig. 5F).” for “ORL8 assay.”

Where [8] appears, read: reagent at expected EC90, Fig. 5F (control 2.5).

As to `C[C@@H]1CC[C@H]2[C@@H](C)C(=O)O[C@@H]3O[C@@]4(C)CC[C@@H]1[C@]32OO4` [Artemisinin, reference compound], the “VE 10μM(+) / VE 10μM(-) ratio of RL activity” value in assay [1] (setting [8]) was 1.9. Also, in assay [2], the anti-HCV activity result is on record as “weak anti-HCV activity”.

For the compound `NC(=O)c1ncn([C@@H]2O[C@H](CO)[C@@H](O)[C@H]2O)n1` [RBV, ribavirin], the “inhibition of HCV-RNA replication” value is given as “not in the OR6 assay” in assay [3], “efficiently inhibited HCV-RNA replication” in assay [4] and “efficiently inhibited HCV-RNA replication” in assay [5].

Compound IFN-α displayed an EC80 in assay [6] of about 1 IU/ml. In assay [7], the “time after treatment at which a decrease of RL activity began to be seen” value was determined as 12 h. Besides, the “VE 10μM(+) / VE 10μM(-) ratio of RL activity” value in assay [1] (reagent at expected EC90, Fig. 5B (control 3.0)) is given as 3.2; in assay [1] (reagent at expected EC90, Fig. 5D (control 2.3)), 4.3; in assay [1] (setting [8]), 3.5.
